How the values were obtained:
[1] = molecular target: T1, Muscarinic acetylcholine receptor M1 (Homo sapiens, UniProt P11229); experiment: Binding affinity to muscarinic M1 receptor
T1 sequence (P11229 whole entry): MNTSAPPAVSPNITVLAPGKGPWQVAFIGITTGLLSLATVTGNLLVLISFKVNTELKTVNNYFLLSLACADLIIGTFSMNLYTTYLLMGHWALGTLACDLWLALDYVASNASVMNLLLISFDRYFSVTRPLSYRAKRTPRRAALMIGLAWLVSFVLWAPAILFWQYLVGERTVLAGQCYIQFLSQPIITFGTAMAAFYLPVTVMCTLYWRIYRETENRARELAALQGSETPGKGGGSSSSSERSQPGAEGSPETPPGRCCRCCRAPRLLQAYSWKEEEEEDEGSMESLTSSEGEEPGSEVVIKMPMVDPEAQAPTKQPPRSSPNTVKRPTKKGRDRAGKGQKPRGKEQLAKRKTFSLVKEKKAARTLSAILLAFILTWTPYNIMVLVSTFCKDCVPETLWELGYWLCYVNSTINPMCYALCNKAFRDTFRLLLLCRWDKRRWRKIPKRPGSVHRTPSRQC

[2] = molecular target: Muscarinic acetylcholine receptors; M1 & M2 (Homo sapiens) (UniProt P11229+P08172); experiment: Selectivity for muscarinic M1 receptor over muscarinic M2 receptor; format: protein assay

**Q.** Which Ki [1] does the source give for `C=C(c1ccc(S(=O)(=O)c2ccc(OC)cc2)cc1)C1CCN(C2CCN(S(=O)(=O)CC)CC2)CC1` here?
**A.** 74.5 nM

**Q.** What about the Ratio pKi [2] of the same compound?
**A.** 2.21

**Q.** What does the source list for `C=C(c1ccc(S(=O)(=O)c2ccc(OC)cc2)cc1)C1CCN(C2CCN(C(=O)CC)CC2)CC1`?
**A.** Ki [1]: 60.8 nM; Ratio pKi [2]: 1.2

**Q.** With `C=C(c1ccc(S(=O)(=O)c2ccc(OC)cc2)cc1)C1CCN(C2CCN(C(=O)C(C)C)CC2)CC1` as the compound, how does the Ki [1] read?
**A.** 117 nM

**Q.** What about the Ratio pKi [2] of the same compound?
**A.** 1.72

**Q.** How did the Ki [1] turn out when `C=C(c1ccc(S(=O)(=O)c2ccc(OC)cc2)cc1)C1CCN(C2CCN(C(=O)OCCC)CC2)CC1` was run?
**A.** 40.7 nM

**Q.** What about the Ratio pKi [2] of the same compound?
**A.** 1.84

**Q.** With `C=C(c1ccc(S(=O)(=O)c2ccc(OC)cc2)cc1)C1CCN(C2CCNCC2)CC1` as the compound, how does the Ratio pKi [2] read?
**A.** 0.903

**Q.** `C=C(c1ccc(S(=O)(=O)c2ccc(OC)cc2)cc1)C1CCN(C2CCN(S(=O)(=O)C(C)C)CC2)CC1` was tested. Which Ki [1] did it give?
**A.** 31.7 nM

**Q.** And the Ratio pKi [2]?
**A.** 2.3

**Q.** Which Ki [1] does the source give for `C=C(c1ccc(S(=O)(=O)c2ccc(OC)cc2)cc1)C1CCN(C2CCN(S(=O)(=O)Cc3ccccc3)CC2)CC1` here?
**A.** 33.3 nM

**Q.** What about the Ratio pKi [2] of the same compound?
**A.** 1.36

**Q.** With `C=C(c1ccc(S(=O)(=O)c2ccc(OC)cc2)cc1)C1CCN(C2CCN(C(=O)OCCCC)CC2)CC1` as the compound, how does the Ki [1] read?
**A.** 9.79 nM

**Q.** And the Ratio pKi [2]?
**A.** 1.45

**Q.** With `C=C(c1ccc(S(=O)(=O)c2ccc(OC)cc2)cc1)C1CCN(C2CCN(C(=O)OC(C)C)CC2)CC1` as the compound, how does the Ki [1] read?
**A.** 14.8 nM

**Q.** What about the Ratio pKi [2] of the same compound?
**A.** 1.56

**Q.** How did the Ki [1] turn out when `C=C(c1ccc(S(=O)(=O)c2ccc(OC)cc2)cc1)C1CCN(C2CCN(C(=O)C3CC3)CC2)CC1` was run?
**A.** 68.1 nM

**Q.** What about the Ratio pKi [2] of the same compound?
**A.** 2.42

**Q.** `C=C(c1ccc(S(=O)(=O)c2ccc(OC)cc2)cc1)C1CCN(C2CCN(C(=O)Cc3ccccc3)CC2)CC1` was tested. Which Ki [1] did it give?
**A.** 95.7 nM

**Q.** And the Ratio pKi [2]?
**A.** 1.5

**Q.** How did the Ratio pKi [2] turn out when `C=C(c1ccc(S(=O)(=O)c2ccc(OC)cc2)cc1)C1CCN(C2CCN(S(=O)(=O)CCC)CC2)CC1` was run?
**A.** 1.95

**Q.** Which results are given for `C=C(c1ccc(S(=O)(=O)c2ccc(OC)cc2)cc1)C1CCN(C2CCN(S(=O)(=O)c3ccccc3)CC2)CC1`?
**A.** Ki [1]: 37.4 nM; Ratio pKi [2]: 2.02

**Q.** Which Ki [1] does the source give for `C=C(c1ccc(S(=O)(=O)c2ccc(OC)cc2)cc1)C1CCN(C2CCN(C(=O)OCc3ccccc3)CC2)CC1` here?
**A.** 10.8 nM

**Q.** And the Ratio pKi [2]?
**A.** 1.38

**Q.** Which Ki [1] does the source give for `C=C(c1ccc(S(=O)(=O)c2ccc(OC)cc2)cc1)C1CCN(C2CCN(C(=O)OCC(C)C)CC2)CC1` here?
**A.** 10.5 nM

**Q.** And the Ratio pKi [2]?
**A.** 1.54

**Q.** What does the source list for `C=C(c1ccc(S(=O)(=O)c2ccc(OC)cc2)cc1)C1CCN(C2CCN(C(=O)OC)CC2)CC1`?
**A.** Ki [1]: 60.4 nM; Ratio pKi [2]: 1.78

**Q.** For `C=C(c1ccc(S(=O)(=O)c2ccc(OC)cc2)cc1)C1CCN(C2CCN(C(=O)OCC)CC2)CC1`, which Ratio pKi [2] is on record?
**A.** 1.77

**Q.** `C=C(c1ccc(S(=O)(=O)c2ccc(OC)cc2)cc1)C1CCN(C2CCN(S(=O)(=O)CCCC)CC2)CC1` was tested. Which Ki [1] did it give?
**A.** 57 nM

**Q.** What about the Ratio pKi [2] of the same compound?
**A.** 2.18

**Q.** Which Ratio pKi [2] does the source give for `C=C(c1ccc(S(=O)(=O)c2ccc(OC)cc2)cc1)C1CCN(C2CCN(C(=O)CCC)CC2)CC1` here?
**A.** 2.04
